Laboratory results published in patent publication US7045532B2 (Millennium Pharmaceuticals, Inc., priority 1999, dated 2006).

Key:
ACE-2 [1] = target: T1, ACE-2 (Homo sapiens, UniProt Q9BYF1); test: ACE-2 Competitive Substrate Assay (ACS Assay); assay type: biochemical; conditions: for Ki: Ki class, compounds tested in 5% DMSO, 12 concentrations, read-out: Human ACE-2 Activity
T1 construct: a stop codon inserted after the serine immediately preceding the transmembrane domain; made in house; host or cells: CHO K1 cells (transient transfection, purified from conditioned medium)

ACE-2 [2] = target: ACE-2 (Rattus norvegicus, UniProt Q5EGZ1); test: ACE-2 Competitive Substrate Assay, rat ACE-2; assay type: biochemical; conditions: Ki class; compounds tested in 5% DMSO, 12 concentrations
ACE (Sigma, A2580) = target: T2, ACE (Sigma, A2580) (Sus scrofa, UniProt F1RRW5); test: ACE enzymatic activity assay; assay type: biochemical, porcine; conditions: Ki class; compounds tested in 5% DMSO, 12 concentrations
T2 construct: ACE from porcine kidney; purchased Sigma A2580; host or cells: porcine kidney
T2 sequence (F1RRW5 34-1309): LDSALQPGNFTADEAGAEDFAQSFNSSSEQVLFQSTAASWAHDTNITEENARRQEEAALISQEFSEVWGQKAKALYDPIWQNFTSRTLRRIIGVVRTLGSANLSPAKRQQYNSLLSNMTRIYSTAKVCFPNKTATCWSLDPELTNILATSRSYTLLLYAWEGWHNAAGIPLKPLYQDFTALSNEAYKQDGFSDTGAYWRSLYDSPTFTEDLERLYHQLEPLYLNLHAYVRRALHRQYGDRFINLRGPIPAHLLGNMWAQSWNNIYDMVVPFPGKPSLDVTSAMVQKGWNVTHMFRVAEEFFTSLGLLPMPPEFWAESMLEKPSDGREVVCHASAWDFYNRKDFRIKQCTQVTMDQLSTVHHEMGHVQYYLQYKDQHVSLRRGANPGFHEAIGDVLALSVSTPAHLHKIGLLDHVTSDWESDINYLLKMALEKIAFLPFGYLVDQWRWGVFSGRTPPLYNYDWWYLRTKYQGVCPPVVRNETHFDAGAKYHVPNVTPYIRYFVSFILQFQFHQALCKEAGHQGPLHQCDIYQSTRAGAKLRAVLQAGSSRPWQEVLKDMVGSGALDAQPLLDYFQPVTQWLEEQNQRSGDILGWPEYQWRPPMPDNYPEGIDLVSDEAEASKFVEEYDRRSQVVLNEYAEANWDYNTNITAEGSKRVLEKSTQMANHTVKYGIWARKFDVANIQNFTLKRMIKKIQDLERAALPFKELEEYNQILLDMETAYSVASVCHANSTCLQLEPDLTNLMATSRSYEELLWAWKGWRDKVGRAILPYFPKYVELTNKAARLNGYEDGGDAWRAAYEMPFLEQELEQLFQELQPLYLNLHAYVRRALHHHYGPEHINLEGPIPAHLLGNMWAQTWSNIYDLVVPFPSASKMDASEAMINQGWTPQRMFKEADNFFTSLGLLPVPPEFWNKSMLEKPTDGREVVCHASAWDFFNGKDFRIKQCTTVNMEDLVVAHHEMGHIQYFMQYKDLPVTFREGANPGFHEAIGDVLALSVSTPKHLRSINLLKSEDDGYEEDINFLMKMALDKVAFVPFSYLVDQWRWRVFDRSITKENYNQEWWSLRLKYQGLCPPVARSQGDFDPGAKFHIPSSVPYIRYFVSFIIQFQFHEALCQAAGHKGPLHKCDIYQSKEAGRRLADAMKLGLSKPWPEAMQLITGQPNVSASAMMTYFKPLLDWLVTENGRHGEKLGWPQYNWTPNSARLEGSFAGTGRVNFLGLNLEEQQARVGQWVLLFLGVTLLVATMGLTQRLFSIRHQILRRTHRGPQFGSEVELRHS
Procedure, shortened: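 Fluorogenic substrate cleavage by 1 nM ACE, read at 320/405 nm after EDTA stop at ~30 min. Reactions at 25 °C, pH 7.5, in HEPES/NaCl/Brij-35 buffer; compounds tested at 12 concentrations in 5% DMSO.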

Carboxypeptidase A = target: T3, Carboxypeptidase A (Bos taurus, UniProt P00730); test: Carboxypeptidase A activity assay; assay type: biochemical; conditions: Ki class; compounds tested in 5% DMSO, 12 concentrations
T3 sequence (P00730 111-419): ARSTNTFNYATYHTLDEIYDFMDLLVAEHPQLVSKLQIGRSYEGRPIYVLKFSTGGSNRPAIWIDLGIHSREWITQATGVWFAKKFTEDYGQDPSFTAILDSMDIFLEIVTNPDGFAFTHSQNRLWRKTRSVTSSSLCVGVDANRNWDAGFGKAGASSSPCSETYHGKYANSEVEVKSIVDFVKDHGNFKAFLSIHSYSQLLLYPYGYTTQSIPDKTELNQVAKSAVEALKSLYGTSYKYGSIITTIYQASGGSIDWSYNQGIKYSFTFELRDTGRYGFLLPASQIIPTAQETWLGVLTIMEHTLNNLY
Procedure, shortened: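 Ki obtained by correcting apparent Ki for substrate, Ki=Kiapp/(1+[S]/Km), from 12-concentration series. Enzyme activity read by absorbance at 328 nm with 5% DMSO present, EDTA stop.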

T1 sequence (Q9BYF1 18-740 limits assumed): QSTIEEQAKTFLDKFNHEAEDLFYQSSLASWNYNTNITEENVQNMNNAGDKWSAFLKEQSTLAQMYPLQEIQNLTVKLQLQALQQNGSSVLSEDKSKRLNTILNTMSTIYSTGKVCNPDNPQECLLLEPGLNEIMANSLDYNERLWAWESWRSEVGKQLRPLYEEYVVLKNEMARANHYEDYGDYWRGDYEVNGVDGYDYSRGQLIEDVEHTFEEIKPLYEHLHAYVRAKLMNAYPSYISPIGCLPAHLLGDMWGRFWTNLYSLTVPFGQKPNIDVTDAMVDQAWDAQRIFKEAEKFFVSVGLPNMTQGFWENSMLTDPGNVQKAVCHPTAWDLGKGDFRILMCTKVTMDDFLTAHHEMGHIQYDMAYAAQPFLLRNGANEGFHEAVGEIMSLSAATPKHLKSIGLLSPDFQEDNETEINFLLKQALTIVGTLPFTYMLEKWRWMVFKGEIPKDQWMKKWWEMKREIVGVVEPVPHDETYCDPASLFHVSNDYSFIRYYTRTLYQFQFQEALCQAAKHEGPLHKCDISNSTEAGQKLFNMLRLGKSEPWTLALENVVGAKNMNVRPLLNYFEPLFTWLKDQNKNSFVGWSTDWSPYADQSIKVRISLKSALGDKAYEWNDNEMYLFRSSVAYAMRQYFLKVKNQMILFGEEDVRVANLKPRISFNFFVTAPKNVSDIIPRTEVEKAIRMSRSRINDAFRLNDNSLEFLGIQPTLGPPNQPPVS
ACE-2 (Rattus norvegicus, UniProt Q5EGZ1), sequence (Q5EGZ1 18-805): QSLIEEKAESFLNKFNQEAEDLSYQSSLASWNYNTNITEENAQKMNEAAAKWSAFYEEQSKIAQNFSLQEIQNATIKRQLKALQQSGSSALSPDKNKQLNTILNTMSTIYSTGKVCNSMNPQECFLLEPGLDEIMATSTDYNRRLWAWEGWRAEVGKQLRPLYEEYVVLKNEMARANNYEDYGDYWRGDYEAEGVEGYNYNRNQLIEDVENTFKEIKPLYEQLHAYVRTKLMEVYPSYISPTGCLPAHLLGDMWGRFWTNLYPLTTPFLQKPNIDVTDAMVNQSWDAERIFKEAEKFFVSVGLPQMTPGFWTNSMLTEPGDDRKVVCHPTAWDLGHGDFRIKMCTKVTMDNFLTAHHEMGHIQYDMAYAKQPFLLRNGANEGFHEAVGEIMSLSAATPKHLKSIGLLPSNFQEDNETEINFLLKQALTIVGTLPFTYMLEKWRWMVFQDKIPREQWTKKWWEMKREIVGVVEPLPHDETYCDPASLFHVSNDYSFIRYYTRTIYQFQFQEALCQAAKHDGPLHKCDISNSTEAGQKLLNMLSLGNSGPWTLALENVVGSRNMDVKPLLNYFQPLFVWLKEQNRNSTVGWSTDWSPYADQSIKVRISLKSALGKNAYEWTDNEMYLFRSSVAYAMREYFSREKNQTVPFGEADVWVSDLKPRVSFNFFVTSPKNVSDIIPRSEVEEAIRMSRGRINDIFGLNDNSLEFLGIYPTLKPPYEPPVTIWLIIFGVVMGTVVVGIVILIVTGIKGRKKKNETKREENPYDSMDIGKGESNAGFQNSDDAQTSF

Row | SMILES | Ki (ACE-2 [1]) [nM] | relative activity of the diastereomers EZ and FA (ACE-2 [1]; assay not given) | Ki (ACE-2 [2]) [nM] | Ki (ACE (Sigma, A2580)) [nM] | Ki (Carboxypeptidase A) [nM]
1 | CC(C)CC(N[C@@H](Cc1cncn1Cc1ccccc1)C(=O)O)C(=O)O (single isomer, unassigned) [EZ, 2-[2-(3-Benzyl-3H-imidazol-4-yl)-1-carboxy-ethylamino]-4-methyl-pentanoic acid] | > 500 | more active diastereomer | < 100 | > 50000 | > 50000
2 | CC(C)CC(N[C@@H](Cc1cncn1COCc1ccccc1)C(=O)O)C(=O)O (single isomer, unassigned) [FG, 2-[2-(3-Benzyloxymethyl-3H-imidazol-4-yl)-1-carboxy-ethylamino]-4-methyl-pentanoic acid] | > 500 | – | > 500 | > 50000 | > 50000
3 | CC(C)CC(N[C@@H](Cc1cncn1COCc1ccccc1)C(=O)O)C(=O)O (single isomer, unassigned) [FH, 2-[2-(3-Benzyloxymethyl-3H-imidazol-4-yl)-1-carboxy-ethylamino]-4-methyl-pentanoic acid] | > 500 | – | > 500 | > 50000 | > 50000
4 | COc1ccc(CCNC(=O)[C@H](Cc2cnc[nH]2)NC(CC(C)C)C(=O)O)cc1 (single isomer, unassigned) [FK, 2-{2-(3H-Imidazol-4-yl)-1-[2-(4-methoxy-phenyl)-ethylcarbamoyl]-ethylamino}-4-methyl-pentanoic acid] | > 500 | – | > 500 | > 50000 | > 50000
5 | CC(C)CC(N[C@H](CO)Cc1c[nH]cn1)C(=O)O (single isomer, unassigned) [FO, 2-[1-Hydroxymethyl-2-(1H-imidazol-4-yl)-ethylamino)4-methyl-pentanoic acid] | > 500 | – | > 500 | > 50000 | > 50000
6 | CC(C)CC(N[C@@H](Cc1cnc[nH]1)C(=O)NCCc1ccccc1)C(=O)O (single isomer, unassigned) [FW, 2-[2-(3H-Imidazol-4-yl)-1-phenethylcarbamoyl-ethylamino]-4-methyl-pentanoic acid] | > 500 | – | > 500 | > 50000 | > 50000
7 | CCCCC(N[C@@H](Cc1cncn1Cc1ccccc1)C(=O)O)C(=O)O (single isomer, unassigned) [FY, 2-[2-(3H-Benzyl-3-imidazol-4-yl)-1-carboxy-ethylamino]-hexanoicacid] | > 500 | – | < 100 | > 50000 | > 50000
8 | CC(C)CC(N[C@@H](Cc1cncn1Cc1cccc([N+](=O)[O-])c1)C(=O)O)C(=O)O (single isomer, unassigned) [GB, 2-[1-Carboxy-2-[3-(3-nitro-benzyl)-3H-imidazol-4-yl]-ethylamino]-4-methyl-pentanoic acid] | > 500 | – | 100 to 500 | > 50000 | > 50000
9 | CCC(C)C(NC(Cc1cncn1Cc1ccccc1)C(=O)O)C(=O)O (single isomer, unassigned) [GC, 2-[2-(3-Benzyl-3H-imidazol-4-yl)-1-carboxy-ethylamino]-3-methyl-pentanoic acid] | > 500 | – | 100 to 500 | > 50000 | 10000 to 50000
